Bounds are passed on as bounds.

One experiment has as its system CTLL2. Description: IL-2 dependent T-cell proliferation, XTT assay. The class given is cell-based, mouse. The conditions noted are these: 96 hours, 50 pg human recombinant IL-2.
The test system of another experiment is IL-2 induced VLS. The experiment in a line: IL-2 induced vascular leak syndrome, organ wet/dry weight. Conditions: compound D in the 1 mg/kg range, compound E in the 0.1 mg/kg range; for reduction of VLS in the heart / reduction of VLS in the spleen: 9 injections of murine IL-2 and/or compound over 4 days.
A further experiment concerns angiogenesis. Description: Matrigel plug angiogenesis model, FITC-lectin quantification. The class given is in vivo, Athymic WeHi (nu/nu) mice. The conditions noted are these: 10 mg/kg intraperitoneally bid for four days; matrigel with 400 ng/ml bFGF or VEGF. Here is the method: FIGURE 13 (omitted) and 14 (omitted) illustrate the effects of invention compounds for their capacity to inhibit angiogenesis in vivo. […] Tumor extracellular matrix infused with the 160 ng of the described growth factors were injected subcutaneously in a Balb/C mouse. The described invention compound was injected daily at the described concentration for 5 days. After 5 days the animals were sacrificed and angiogenesis quantified based on the binding of fluorescently labeled, endothelium specific FITC-lectin. In the graph, compound A is 6,7-bis(4-hydroxyphenyl)-pteridin-4-ylamine sulfate salt.
Referring to FIGURES 13 (omitted) and 14 (omitted), a murine model of angiogenesis was used to screen compounds for their capacity to inhibit angiogenesis. […] In the graph, compound A is 6,7-bis(4-hydroxyphenyl)-pteridin-4-ylamine sulfate salt. Athymic WeHi (nu/nu) mice were first injected with 400; jls of an ice- cold tumor-derived extracellular matrix substrate, matrigel (Becton-Dickinson) infused with 400 ng/ml of bFGF or VEGF (R & D Systems) which rapidly solidifies into a subdermal plug at body temperature. […] Twenty minutes after injection of the lectin, mice were euthanized, matrigel plugs were then extracted, solublized in PBS with mechanical grinding and the fluorescent content of individual plugs was quantified. […]

Experiment [1] can be described thus: Oleic acid induced ARDS lung edema, wet/dry weight. The class given is in vivo, NIH Swiss mice. Conditions: 0.5 mg/kg range; 1.5 mg/kg Oleic Acid intraperitoneal, lungs collected after four hours. Here is the method: FIGURE 12 (omitted) illustrates the effects of invention compounds for their capacity to inhibit edema associated with Acute Respiratory Distress Syndrome (ARDS). NIH Swiss mice were given an intraperitoneal injection of 1.5 mg/kg Oleic Acid of (in this example formulated in saline) and/or invention compounds.
NIH Swiss mice were given an intraperitoneal injection of 1.5 mg/kg Oleic Acid of (in this example formulated in saline) and/or invention compounds.

Experiment [2] can be described thus: Cerebral stroke model, permanent middle cerebral artery occlusion. The class given is in vivo, mice. The conditions noted are these: 1 mg/kg BW IV 60 min after ligation. Here is the method:
Cerebral strokes were created in mice by permanent ligation of the middle cerebral artery using a cauterizing tool, followed 60 min later by IV injection of either vehicle alone (50% PEG400 in water) or test agents (at 1 mg/kg BW). Twenty four hours later, brains were sectioned and stained using triphenyltetrazolium chloride to delineate viable from infarcted tissue.

Text for IL-2 induced VLS: BalbC mice were given 9 injections of the indicated dose of murine IL-2 (in this example formulated in saline with 5% bovine serum albumin) and/or invention compounds over a period of 4 days. Animals were then sacrificed followed by collection, blotting and weighing (wet weight) of heart, lungs, and spleen.
BalbC mice were given 9 injections of the indicated dose of murine IL-2 and/or invention compounds over a period of 4 days. Animals were then sacrificed followed by collection, blotting and weighing (wet weight) of heart, lungs, and spleen.

Take `Nc1nc(N)c2nc(-c3cccc(O)c3)c(-c3cccc(O)c3)nc2n1.O=S(=O)(O)O` [compound E]: the “impact on IL-2 induced T-cell proliferation” value in the experiment on CTLL2 (in the therapeutic range (< 1pM)) is “no significant impact”. Besides, in the experiment on IL-2 induced VLS, the “reduction of VLS in the heart” value is given as above 100%, the “reduction of VLS in the spleen” value is recorded as above 100% and the “reducing VLS in vivo” value was 80-100%.
For `Nc1ncnc2nc(-c3ccc(O)cc3)c(-c3ccc(O)cc3)nc12.O=S(=O)(O)O` [compound A, 6,7-bis(4-hydroxyphenyl)-pteridin-4-ylamine sulfate salt], the “inhibition of angiogenesis in vivo” value in the experiment on angiogenesis is given as “successfully inhibited angiogenesis in vivo”.
In the case of `Nc1ncnc2nc(-c3ccc(O)c(O)c3)c(-c3ccc(O)c(O)c3)nc12` [compound F, 4-[4-amino-6-(3,4-dihydroxyphenyl)pteridin-7-yl]benzene-1,2-diol], the “reduction of ARDS-induced edema” value in experiment [1] was above 100%.
Regarding `O=C(O)c1ccccc1C(=O)Nc1ccccc1-c1cc2ccccc2[nH]1` [compound D], in the experiment on CTLL2 (in the 1 mg/kg range as printed), the “impact on IL-2 induced T-cell proliferation” value is on record as “no significant impact”. In addition, the “Infarct area in mm^3 (mean ± SEM)” value in experiment [2] (twenty four hours later) was 15.6 ± 5.16 mm^3. Also, the “% Infarct reduction” value in experiment [2] (versus vehicle of the same study) is on record as 63%. For the same compound, in the experiment on IL-2 induced VLS, the “reduction of VLS in the heart” value was above 100%, the “reduction of VLS in the spleen” value is reported as above 100% and the “reducing VLS in vivo” value is on record as 80-100%.
